Reference: the NIST ThermoML archive (doi:10.1016/j.jct.2005.03.020)
Numbers after ± are expanded uncertainties.

Experiments:
[1] = excess molar enthalpy (molar enthalpy of mixing); xn = mol fraction of the nth substance listed; conditions: 298.15 K, 101.33 kPa, Liquid
[2] = xn = mol fraction of the nth substance listed; conditions: 298.15 K, 101.33 kPa, Liquid
[3] = refractive index (Na D-line) (dimensionless); conditions: 298.15 K; 101.33 kPa; Liquid; Standard Abbe refractometry
[4] = 298.15 K; 101.33 kPa; Liquid

CCCCC(=O)OCC [ethyl pentanoate] + ClCCCl
Conditions	excess molar enthalpy [kcal/mol]	mass density [kg/m3]
[1], x2 = 0.0371	-0.00712 ± 0.000478	–
[1], x2 = 0.098	-0.0147 ± 0.000598	–
[1], x2 = 0.126	-0.0245 ± 0.000765	–
[1], x2 = 0.1732	-0.0363 ± 0.000932	–
[1], x2 = 0.2196	-0.0475 ± 0.00112	–
[1], x2 = 0.2666	-0.0614 ± 0.00134	–
[1], x2 = 0.3122	-0.0744 ± 0.00153	–
[1], x2 = 0.3542	-0.0839 ± 0.00167	–
[1], x2 = 0.4265	-0.0924 ± 0.00179	–
[1], x2 = 0.4641	-0.0946 ± 0.00184	–
[1], x2 = 0.5103	-0.0954 ± 0.00184	–
[1], x2 = 0.5638	-0.0959 ± 0.00186	–
[1], x2 = 0.626	-0.0916 ± 0.00179	–
[1], x2 = 0.7011	-0.0817 ± 0.00165	–
[1], x2 = 0.7962	-0.0618 ± 0.00134	–
[1], x2 = 0.896	-0.0363 ± 0.000932	–
[2], x1 = 0.0345	–	1220.93 ± 0.78
[2], x1 = 0.0687	–	1198.23 ± 0.73
[2], x1 = 0.1042	–	1176.06 ± 0.69
[2], x1 = 0.1425	–	1153.66 ± 0.64
[2], x1 = 0.1817	–	1132.12 ± 0.6
[2], x1 = 0.2273	–	1108.84 ± 0.56
[2], x1 = 0.2723	–	1087.35 ± 0.53
[2], x1 = 0.324	–	1064.47 ± 0.49
[2], x1 = 0.3767	–	1042.83 ± 0.46
[2], x1 = 0.4332	–	1021.3 ± 0.44
[2], x1 = 0.4956	–	999.37 ± 0.42
[2], x1 = 0.5633	–	977.31 ± 0.45
[2], x1 = 0.6342	–	956.13 ± 0.49
[2], x1 = 0.7134	–	934.52 ± 0.53
[2], x1 = 0.7992	–	912.89 ± 0.57
[2], x1 = 0.894	–	893.96 ± 0.61

ClCCCl [1,2-dichloroethane] + CCOC(C)=O
Conditions	excess molar enthalpy [kcal/mol]	mass density [kg/m3]
[1], x2 = 0.0368	-0.00939 ± 0.000526	–
[1], x2 = 0.0819	-0.021 ± 0.000693	–
[1], x2 = 0.131	-0.0345 ± 0.000908	–
[1], x2 = 0.1846	-0.0491 ± 0.00115	–
[1], x2 = 0.2408	-0.0642 ± 0.00136	–
[1], x2 = 0.295	-0.0779 ± 0.00158	–
[1], x2 = 0.3419	-0.0867 ± 0.00172	–
[1], x2 = 0.3836	-0.0935 ± 0.00182	–
[1], x2 = 0.4244	-0.101 ± 0.00194	–
[1], x2 = 0.46	-0.106 ± 0.00201	–
[1], x2 = 0.4728	-0.107 ± 0.00203	–
[1], x2 = 0.4972	-0.108 ± 0.00203	–
[1], x2 = 0.5087	-0.108 ± 0.00203	–
[1], x2 = 0.5523	-0.107 ± 0.00203	–
[1], x2 = 0.604	-0.104 ± 0.00198	–
[1], x2 = 0.6668	-0.0965 ± 0.00186	–
[1], x2 = 0.747	-0.0807 ± 0.00163	–
[1], x2 = 0.8328	-0.058 ± 0.00127	–
[1], x2 = 0.9184	-0.0322 ± 0.000884	–
[2], x2 = 0.0497	–	1223.67 ± 0.78
[2], x2 = 0.0983	–	1202.79 ± 0.73
[2], x2 = 0.1492	–	1181.45 ± 0.68
[2], x2 = 0.1997	–	1160.95 ± 0.64
[2], x2 = 0.2524	–	1140.18 ± 0.59
[2], x2 = 0.3059	–	1119.62 ± 0.55
[2], x2 = 0.3618	–	1098.71 ± 0.5
[2], x2 = 0.4184	–	1078.16 ± 0.46
[2], x2 = 0.4765	–	1057.68 ± 0.42
[2], x2 = 0.5356	–	1037.35 ± 0.38
[2], x2 = 0.5982	–	1016.38 ± 0.34
[2], x2 = 0.6603	–	996.21 ± 0.32
[2], x2 = 0.7247	–	975.88 ± 0.35
[2], x2 = 0.7893	–	955.96 ± 0.38
[2], x2 = 0.857	–	935.65 ± 0.41
[2], x2 = 0.928	–	914.85 ± 0.45

CCCC(=O)OCC [ethyl butanoate]
Conditions	mass density [kg/m3]	refractive index
[3]	–	1.3895 ± 0.0008
[4]	873.54 ± 1.1	–

CCCC(=O)OCC [ethyl butanoate] + ClCCCl
Conditions	excess molar enthalpy [kcal/mol]	mass density [kg/m3]
[1], x1 = 0.0372	-0.00574 ± 0.000478	–
[1], x1 = 0.0865	-0.016 ± 0.000621	–
[1], x1 = 0.1386	-0.0291 ± 0.000837	–
[1], x1 = 0.1921	-0.0436 ± 0.00105	–
[1], x1 = 0.2431	-0.0589 ± 0.00129	–
[1], x1 = 0.2939	-0.0737 ± 0.00151	–
[1], x1 = 0.3419	-0.0863 ± 0.00172	–
[1], x1 = 0.388	-0.0979 ± 0.00189	–
[1], x1 = 0.4274	-0.105 ± 0.00201	–
[1], x1 = 0.4838	-0.109 ± 0.00206	–
[1], x1 = 0.5489	-0.11 ± 0.00208	–
[1], x1 = 0.5825	-0.108 ± 0.00203	–
[1], x1 = 0.6236	-0.104 ± 0.00198	–
[1], x1 = 0.7068	-0.0906 ± 0.00177	–
[1], x1 = 0.7989	-0.0682 ± 0.00143	–
[1], x1 = 0.8971	-0.0405 ± 0.001	–
[1], x1 = 0.9325	-0.0292 ± 0.000837	–
[2], x1 = 0.0378	–	1221.95 ± 0.79
[2], x1 = 0.075	–	1199.86 ± 0.75
[2], x1 = 0.1149	–	1177.55 ± 0.73
[2], x1 = 0.1568	–	1155.49 ± 0.7
[2], x1 = 0.198	–	1134.78 ± 0.68
[2], x1 = 0.2425	–	1113.63 ± 0.67
[2], x1 = 0.2957	–	1089.91 ± 0.66
[2], x1 = 0.3476	–	1068.19 ± 0.65
[2], x1 = 0.4019	–	1046.72 ± 0.66
[2], x1 = 0.46	–	1025.2 ± 0.67
[2], x1 = 0.5234	–	1003.08 ± 0.68
[2], x1 = 0.5887	–	981.85 ± 0.73
[2], x1 = 0.6583	–	960.62 ± 0.78
[2], x1 = 0.7338	–	939.07 ± 0.83
[2], x1 = 0.8138	–	917.85 ± 0.89
[2], x1 = 0.9027	–	895.87 ± 0.95

CCOC(C)=O [ethyl acetate]
Conditions	mass density [kg/m3]	refractive index
[3]	–	1.3692 ± 0.0007
[4]	894.33 ± 0.3	–

ClCCCCCCCl [1,6-dichlorohexane] + CCOC(C)=O
Conditions	excess molar enthalpy [kcal/mol]	mass density [kg/m3]
[1], x2 = 0.0931	0.00774 ± 0.00098	–
[1], x2 = 0.1859	0.0127 ± 0.00112	–
[1], x2 = 0.2737	0.0174 ± 0.00129	–
[1], x2 = 0.3572	0.0197 ± 0.00136	–
[1], x2 = 0.4323	0.0181 ± 0.00131	–
[1], x2 = 0.4967	0.0149 ± 0.0012	–
[1], x2 = 0.5544	0.0101 ± 0.00105	–
[1], x2 = 0.6025	0.00755 ± 0.00098	–
[1], x2 = 0.6355	0.0054 ± 0.000908	–
[1], x2 = 0.7013	0.00318 ± 0.000837	–
[1], x2 = 0.769	0.00105 ± 0.000765	–
[1], x2 = 0.8355	-0.00227 ± 0.000813	–
[1], x2 = 0.9006	-0.00363 ± 0.00086	–
[1], x2 = 0.9593	-0.00163 ± 0.000789	–
[2], x2 = 0.0827	–	1053.91 ± 1.1
[2], x2 = 0.164	–	1043.7 ± 0.98
[2], x2 = 0.2386	–	1033.83 ± 0.9
[2], x2 = 0.3112	–	1023.72 ± 0.83
[2], x2 = 0.3783	–	1013.89 ± 0.77
[2], x2 = 0.4437	–	1003.86 ± 0.71
[2], x2 = 0.5071	–	993.65 ± 0.66
[2], x2 = 0.5654	–	983.86 ± 0.62
[2], x2 = 0.6221	–	973.92 ± 0.58
[2], x2 = 0.6754	–	964.14 ± 0.55
[2], x2 = 0.7291	–	953.86 ± 0.53
[2], x2 = 0.7774	–	944.24 ± 0.51
[2], x2 = 0.824	–	934.61 ± 0.5
[2], x2 = 0.8726	–	924.1 ± 0.49
[2], x2 = 0.9134	–	914.94 ± 0.48
[2], x2 = 0.9552	–	905.22 ± 0.48

CCCCC(=O)OCC [ethyl pentanoate] + ClCCCCl
Conditions	excess molar enthalpy [kcal/mol]	mass density [kg/m3]
[1], x2 = 0.0493	-0.00743 ± 0.000478	–
[1], x2 = 0.0986	-0.0147 ± 0.000598	–
[1], x2 = 0.1536	-0.0238 ± 0.000741	–
[1], x2 = 0.2082	-0.0333 ± 0.000884	–
[1], x2 = 0.261	-0.0426 ± 0.00103	–
[1], x2 = 0.3126	-0.052 ± 0.00117	–
[1], x2 = 0.3627	-0.061 ± 0.00131	–
[1], x2 = 0.4084	-0.066 ± 0.00139	–
[1], x2 = 0.4405	-0.0697 ± 0.00146	–
[1], x2 = 0.4492	-0.0707 ± 0.00146	–
[1], x2 = 0.5044	-0.0725 ± 0.00151	–
[1], x2 = 0.5692	-0.0725 ± 0.00148	–
[1], x2 = 0.6438	-0.0687 ± 0.00143	–
[1], x2 = 0.7284	-0.0593 ± 0.00129	–
[1], x2 = 0.8181	-0.0439 ± 0.00105	–
[1], x2 = 0.9124	-0.0246 ± 0.000765	–
[2], x1 = 0.0395	–	1159.55 ± 0.81
[2], x1 = 0.0785	–	1141.75 ± 0.78
[2], x1 = 0.1207	–	1123.43 ± 0.74
[2], x1 = 0.1642	–	1105.29 ± 0.71
[2], x1 = 0.2098	–	1087.19 ± 0.68
[2], x1 = 0.2576	–	1069.12 ± 0.64
[2], x1 = 0.3081	–	1050.97 ± 0.61
[2], x1 = 0.3623	–	1032.41 ± 0.59
[2], x1 = 0.4179	–	1014.41 ± 0.56
[2], x1 = 0.4804	–	995.25 ± 0.54
[2], x1 = 0.538	–	978.58 ± 0.55
[2], x1 = 0.6036	–	960.5 ± 0.56
[2], x1 = 0.744	–	925.06 ± 0.59
[2], x1 = 0.8249	–	906.38 ± 0.61
[2], x1 = 0.9085	–	888.3 ± 0.63
